Read-outs that look alike come from different tables or passages of the source.
What was measured:
K1119Q RePC mutant = K1119Q RePC mutant (Rhizobium etli, UniProt Q2K340, K1119Q); assay: HCO3^−-dependent ATPase reaction, K1119Q mutant; assay type: biochemical
wild-type RePC [1] = biological target: T1, wild-type RePC (Rhizobium etli, UniProt Q2K340); assay type: biochemical
[2] = tested on: wild-type RePC (pyruvate carboxylase from R. etli); assay: Pyruvate carboxylation activity, malate dehydrogenase coupled assay; assay type: biochemical, Rhizobium etli
wild-type RePC [3] = biological target: T1, wild-type RePC; assay: Coupling study: initial rates of Pi release at varying pyruvate; assay type: biochemical; settings: for Ka pyruvate, stimulation of Pi release: 15 mM HCO3^−
wild-type RePC [4] = biological target: T1, wild-type RePC; assay: Coupling study: initial rates of oxaloacetate formation at varying pyruvate; settings: pyruvate varied; for kcat, oxaloacetate formation: 15 mM HCO3^−
NC(=O)OP(=O)(O)O = assay: purified protein, by the assay type; settings: no free biotin, pH 7.5, 25.0 °C
[5] = substrate: CC(=O)C(=O)O; assay: purified protein, by the assay type; settings: other: (−) acetyl-CoA, 15 mM HCO3^−
[6] = labelled substrate varied, others saturating, pH 7.5, 25° C, 0.25 mM acetyl-CoA

## O=C(O)CCCC[C@@H]1SC[C@@H]2NC(=O)N[C@@H]21 [biotin]
K1119Q RePC mutant; 10 mM free biotin added
  fold increase in the catalytic efficiency: ~1000 fold
K1119Q RePC mutant; addition of 10 mM biotin
  fold decrease in the Km for MgATP: 35 fold

## O=C(O)CC(=O)C(=O)O [oxaloacetate]
wild-type RePC [1]; saturating substrates and activators, 1 mM oxamate, pH 7.5, 25° C
  % kcat of pyruvate carboxylation: 2.0%

## NC(=O)C(=O)O [oxamate]
wild-type RePC [1]; saturating oxamate
  fold stimulation of the rate of oxaloacetate decarboxylation compared to the full reverse reaction: 11 fold

## CC(=O)C(=O)O [pyruvate]
[2]; [6]
  Km: 150 ± 10 µM
  kcat: 440 ± 8 ^d min^−1
[2]; pyruvate varied, 0.7 mM free Mg^2+
  Vmax: 0.69 ± 0.02 µmol/mg/min
[2]; pyruvate varied, 3.0 mM free Mg^2+
  Vmax: 3.18 ± 0.08 µmol/mg/min
[2]; pyruvate varied, 5.0 mM free Mg^2+
  Vmax: 3.98 ± 0.04 µmol/mg/min
[2]; pyruvate varied, […] free Mg^2+
  Vmax: 1.41 ± 0.01 µmol/mg/min
[2]; read-out: Km pyruvate, pyruvate varied, 0.7 mM free Mg^2+
  Km: 3100 ± 200 µM
[2]; read-out: Km pyruvate, pyruvate varied, 3.0 mM free Mg^2+
  Km: 2650 ± 40 µM
[2]; read-out: Km pyruvate, pyruvate varied, 5.0 mM free Mg^2+
  Km: 150 ± 10 µM
[2]; read-out: Km pyruvate, pyruvate varied, […] free Mg^2+
  Km: 3000 ± 400 µM
wild-type RePC [3]; (+) 0.25 mM acetyl-CoA
  Ka pyruvate, stimulation of Pi release: 0.16 ± 0.01 mM
wild-type RePC [3]; (−) acetyl-CoA
  Ka pyruvate, stimulation of Pi release: 0.048 ± 0.008 mM
wild-type RePC [3]; low concentrations of pyruvate, absence of acetyl-CoA
  fold increase of the rates of Pi release from the BC domain: 120-175 fold
wild-type RePC [3]; lowest concentrations of pyruvate, presence of acetyl-CoA
  fold stimulation of the rate of Pi release from the BC domain: 300-500 fold
wild-type RePC [3]; pyruvate varied
  Ka pyruvate (Pi release) without acetyl-CoA, % of (+) acetyl-CoA: 30%
  kcat Pi release without acetyl-CoA, % of (+) acetyl-CoA: 5.8%
  kcat/Ka (Pi release) without acetyl-CoA, % of (+) acetyl-CoA: 19%
wild-type RePC [3]; saturating pyruvate and acetyl-CoA
  limiting value of the ratio oxaloacetate formation / Pi release: 1.08
wild-type RePC [3]; sub-saturating concentrations of pyruvate
  fold increase in the rate of Pi release: ~300 fold
wild-type RePC [4]
  Km pyruvate (oxaloacetate formation) without acetyl-CoA, % of (+) acetyl-CoA: 2%
  kcat oxaloacetate formation without acetyl-CoA, % of (+) acetyl-CoA: 0.5%
  kcat/Km (oxaloacetate formation) without acetyl-CoA, % of (+) acetyl-CoA: 24%
wild-type RePC [4]; (+) 0.25 mM acetyl-CoA
  kcat, oxaloacetate formation: 5.17 ± 0.13 s⁻¹
wild-type RePC [4]; (−) acetyl-CoA
  kcat, oxaloacetate formation: 0.0253 ± 0.0005 s⁻¹

## K1119Q RePC mutant (Rhizobium etli CFN 42; K1119Q)
NC(=O)OP(=O)(O)O; other: K1119Q
  Km: 880 ± 70 µM

## T882A RePC mutant (Rhizobium etli CFN 42; T882A)
NC(=O)OP(=O)(O)O; other: T882A
  Km: 3400 ± 500 µM
  kcat: 0.4 s⁻¹
  kcat/Km: 117 M⁻¹ s⁻¹

B1: wild-type RePC (Rhizobium etli CFN 42) (protein)
chain: MPISKILVANRSEIAIRVFRAANELGIKTVAIWAEEDKLALHRFKADESYQVGRGPHLARDLGPIESYLSIDEVIRVAKLSGADAIHPGYGLLSESPEFVDACNKAGIIFIGPKADTMRQLGNKVAARNLAISVGVPVVPATEPLPDDMAEVAKMAAAIGYPVMLKASWGGGGRGMRVIRSEADLAKEVTEAKREAMAAFGKDEVYLEKLVERARHVESQILGDTHGNVVHLFERDCSVQRRNQKVVERAPAPYLSEAQRQELAAYSLKIAGATNYIGAGTVEYLMDADTGKFYFIEVNPRIQVEHTVTEVVTGIDIVKAQIHILDGAAIGTPQSGVPNQEDIRLNGHALQCRVTTEDPEHNFIPDYGRITAYRSASGFGIRLDGGTSYSGAIITRYYDPLLVKVTAWAPNPLEAISRMDRALREFRIRGVATNLTFLEAIIGHPKFRDNSYTTRFIDTTPELFQQVKRQDRATKLLTYLADVTVNGHPEAKDRPKPLENAARPVVPYANGNGVKDGTKQLLDTLGPKKFGEWMRNEKRVLLTDTTMRDGHQSLLATRMRTYDIARIAGTYSHALPNLLSLECWGGATFDVSMRFLTEDPWERLALIREGAPNLLLQMLLRGANGVGYTNYPDNVVKYFVRQAAKGGIDLFRVFDCLNWVENMRVSMDAIAEENKLCEAAICYTGDILNSARPKYDLKYYTNLAVELEKAGAHIIAVKDMAGLLKPAAAKVLFKALREATGLPIHFHTHDTSGIAAATVLAAVEAGVDAVDAAMDALSGNTSQPCLGSIVEALSGSERDPGLDPAWIRRISFYWEAVRNQYAAFESDLKGPASEVYLHEMPGGQFTNLKEQARSLGLETRWHQVAQAYADANQMFGDIVKVTPSSKVVGDMALMMVSQDLTVADVVSPDREVSFPESVVSMLKGDLGQPPSGWPEALQKKALKGEKPYTVRPGSLLKEADLDAERKVIEKKLEREVSDFEFASYLMYPKVFTDFALASDTYGPVSVLPTPAYFYGLADGEELFADIEKGKTLVIVNQAVSATDSQGMVTVFFELNGQPRRIKVPDRAHGATGAAVRRKAEPGNAAHVGAPMPGVISRVFVSSGQAVNAGDVLVSIEAMKMETAIHAEKDGTIAEVLVKAGDQIDAKDLLAVYGG
[5]
  Km: 13 ± 2 µM
  kcat: 0.0253 ± 0.0005 s⁻¹

Reference: article PMC3210919 (Biochemistry, 2011)
